Columns and labels:
U 373 = test: Cytotoxicity, propidium iodide assay, U 373; type: cell-based; settings: Homo sapiens, U373 MG; Glioblastoma, U 373, 48 hours treatment; read-out: IC50, C7a (U 373)
Experimental: (§1) The assay was designed as in the reference, Anticancer Drugs, 2002, 13, 1-8, the disclosure of which is incorporated by reference for the teaching of the assay.
(§2) Cells from cell lines as mentioned in the table given below were seeded at a density of 3000 cells/well in a white opaque 96-well plate. Following incubation at 37° C./5% CO2 for a period of 18-24 hours, the cells were treated with various concentrations (stock solution was prepared in DMSO and subsequent dilutions were made in media as per ATCC guidelines) of the compounds of Example 1-40 was for a period of 48 hours. At the end of treatment, the spent culture medium was discarded, the cells were washed with 1×PBS and 200 μl of 7 μg/ml propidium iodide was added to each well. The plates were frozen at −70° C. for at least 24 hours. For analysis, the plates were brought to RT, allowed to thaw and were read in PoleStar fluorimeter with the fluorescence setting. The percentage of viable cells in the non-treated set of wells was considered to be 100 and the percentage viability following treatment was calculated accordingly. IC50 values were calculated from graphs plotted using these percentages. Table 4 depicts the IC50 values of compounds of Example 1-40 in individual cell lines.
(§3) The abbreviations for the Cell Lines as used in Table 4 are: […]

IL-6 = test: Human monocyte assay, LPS-stimulated IL-6 (ELISA); type: cell-based; settings: human monocytes, 1 μg/ml LPS, 5 hours
Experimental: (§4) The assay was designed as in the reference, Physiol. Res., 2003, 52, 593-598, the disclosure of which is incorporated by reference for the teaching of the assay.
(§5) Peripheral blood mononuclear cells (hPBMC) were harvested from human blood and suspended in RPMI 1640 culture medium containing 10% FCS, 100 U/mL penicillin and […] streptomycin (assay medium). Monocytes in the hPBMCs were counted using a Coulter Counter following which the cells were resuspended at 2×10^5 monocytes/mL. A cell suspension containing 2×10^4 monocytes was aliquoted per well of a 96-well plate. Subsequently, the hPBMCs were incubated for 4-5 hours at 37° C. under 5% CO2 (During the incubation, the monocytes adhered to the bottom of 96-well plastic culture plate). Following the incubation, the non-adherent lymphocytes were washed with assay medium and the adherent monocytes re-fed with assay medium. After a 48-hour incubation period (37° C., 5% CO2), monocytes were pretreated with various concentrations of compounds of Example 1-40 (prepared in DMSO) or vehicle (0.5% DMSO) for 30 minutes and stimulated with 1 μg/ml LPS (Escherchia coli 0111:B4, Sigma Chemical Co., St. Louis, Mo.). The incubation was continued for 5 hours at 37° C., 5% CO2. Supernatants were harvested, assayed for IL-6 and TNF-α by ELISA as described by the manufacturer (BD Biosciences, USA). Dexamethasone (10 μM) was used as standard for this assay. The 50% inhibitory concentration (IC50) values were calculated by a nonlinear regression method. In all experiments, a parallel plate was run to ascertain the toxicity of compounds of Example 1-40. The toxicity was determined using the MTS assay as described in Am. J. Physiol. Cell Physiol., 2003, 285, C813-C822.

PC3 = test: Cytotoxicity, propidium iodide assay, PC3; type: cell-based; settings: Homo sapiens, PC-3; Prostate, PC3, 48 hours treatment; read-out: IC50, C2a (PC3)
Experimental: as §1, §2, §3

A2780 = test: Cytotoxicity, propidium iodide assay, A2780; type: cell-based; settings: Homo sapiens; Ovarian, A2780, 48 hours treatment; read-out: IC50, C3a (A2780)
Experimental: as §1, §2, §3

H460 = test: Cytotoxicity, propidium iodide assay, H460; type: cell-based; settings: Homo sapiens, NCI-H460; Lung, H460, 48 hours treatment; read-out: IC50, C1b (H460)
Experimental: as §1, §2, §3

PI3Kα kinase = target: T1, PI3Kα kinase (Homo sapiens, UniProt P42336); test: PI3Kα assay (32P incorporation into phosphatidylinositol, TLC densitometry); type: biochemical; settings: At 100 nM
T1 construct: purchased Millipore, USA
T1 sequence (P42336 whole entry): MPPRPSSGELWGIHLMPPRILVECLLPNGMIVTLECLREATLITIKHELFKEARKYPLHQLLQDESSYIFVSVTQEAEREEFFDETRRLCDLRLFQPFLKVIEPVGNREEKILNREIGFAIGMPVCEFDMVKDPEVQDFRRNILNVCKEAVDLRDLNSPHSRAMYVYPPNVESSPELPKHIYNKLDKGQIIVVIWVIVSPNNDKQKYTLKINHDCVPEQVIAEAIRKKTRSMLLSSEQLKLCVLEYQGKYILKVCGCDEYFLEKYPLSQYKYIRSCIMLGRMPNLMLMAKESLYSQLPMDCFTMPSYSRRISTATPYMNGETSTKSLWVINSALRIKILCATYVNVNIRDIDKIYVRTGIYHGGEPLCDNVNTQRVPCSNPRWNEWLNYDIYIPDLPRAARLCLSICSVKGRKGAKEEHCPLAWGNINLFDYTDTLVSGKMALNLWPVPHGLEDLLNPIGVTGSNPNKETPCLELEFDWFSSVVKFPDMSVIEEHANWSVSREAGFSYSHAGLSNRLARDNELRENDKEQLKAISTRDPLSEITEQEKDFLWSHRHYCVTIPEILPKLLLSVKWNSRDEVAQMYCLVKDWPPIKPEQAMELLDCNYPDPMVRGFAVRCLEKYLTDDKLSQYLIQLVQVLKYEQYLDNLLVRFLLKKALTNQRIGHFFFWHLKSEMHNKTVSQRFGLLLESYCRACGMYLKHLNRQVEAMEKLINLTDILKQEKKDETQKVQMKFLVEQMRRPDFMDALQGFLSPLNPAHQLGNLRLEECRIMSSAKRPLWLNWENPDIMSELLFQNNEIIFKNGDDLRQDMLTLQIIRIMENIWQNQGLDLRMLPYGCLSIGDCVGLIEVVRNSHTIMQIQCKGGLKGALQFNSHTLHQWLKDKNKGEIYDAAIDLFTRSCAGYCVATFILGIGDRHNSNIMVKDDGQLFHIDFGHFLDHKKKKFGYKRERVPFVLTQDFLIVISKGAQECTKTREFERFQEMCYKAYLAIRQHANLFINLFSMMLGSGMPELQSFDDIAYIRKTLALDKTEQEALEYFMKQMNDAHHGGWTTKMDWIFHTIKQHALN
T1 sequence (P27986 whole entry partner): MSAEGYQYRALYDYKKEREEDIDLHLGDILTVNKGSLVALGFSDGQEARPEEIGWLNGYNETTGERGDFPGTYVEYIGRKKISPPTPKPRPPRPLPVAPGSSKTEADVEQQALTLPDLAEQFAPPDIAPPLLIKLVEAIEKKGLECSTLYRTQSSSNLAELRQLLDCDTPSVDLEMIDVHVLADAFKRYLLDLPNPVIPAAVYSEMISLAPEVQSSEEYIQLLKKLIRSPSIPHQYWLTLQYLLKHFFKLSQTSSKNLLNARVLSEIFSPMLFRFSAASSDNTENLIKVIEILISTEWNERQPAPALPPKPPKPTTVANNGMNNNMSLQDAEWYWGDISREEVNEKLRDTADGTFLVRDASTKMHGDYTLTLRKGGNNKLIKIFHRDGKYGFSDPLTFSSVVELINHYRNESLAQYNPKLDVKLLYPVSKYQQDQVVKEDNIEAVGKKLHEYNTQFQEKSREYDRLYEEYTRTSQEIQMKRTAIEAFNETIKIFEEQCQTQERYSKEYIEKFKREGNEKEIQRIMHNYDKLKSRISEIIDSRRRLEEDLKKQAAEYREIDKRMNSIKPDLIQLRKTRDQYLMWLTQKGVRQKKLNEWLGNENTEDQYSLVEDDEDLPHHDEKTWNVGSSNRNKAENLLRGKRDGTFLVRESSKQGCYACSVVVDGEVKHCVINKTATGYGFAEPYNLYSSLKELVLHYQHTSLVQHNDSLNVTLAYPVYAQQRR
Experimental: The assay was designed as in the reference, Cell, 2006, 125, 733-47 (Supplemental Data), the disclosure of which is incorporated by reference for the teaching of the assay.
The kinase reaction was carried out in a 25 μL volume in a 1.5 mL microcentrifuge tube. The reaction mixture consisted of kinase buffer (10 mM Hepes, pH 7.5, 50 mM MgCl2), 20 ng PI3Kα kinase (Millipore, USA), 12.5 μg phosphatidylinositol (PI), 10 μM ATP and 1 μCi ^32γ P dATP. Compounds of Example 1-40 were added at concentrations (stock solution was prepared in DMSO and subsequent dilutions were made in kinase buffer) as mentioned in the table. The reaction mixture was incubated at 30° C. for 20 minutes and was terminated by adding 1:1 mixture of MeOH and chloroform. The tube contents were mixed on a vortex mixer and centrifuged at 10000 rpm for 2 minutes. 10 μL of the organic (lower) phase was spotted on to a TLC plate (silica, mobile phase: n-propanol and 2 M glacial acetic acid in 65:35 ratio). The plates were dried and exposed to an X-ray film. The bands appearing as a result of ^32γ P incorporation in PI were quantitated using the QuantityOne (BioRad, USA) densitometry program. PI-103 (Calbiochem, USA) was used as a standard.

OVCAR 3 = test: Cytotoxicity, propidium iodide assay, OVCAR 3; type: cell-based; settings: Homo sapiens; Ovarian, OVCAR 3, 48 hours treatment; read-out: IC50, C3b (OVCAR 3)
Experimental: as §1, §2, §3

PI3K α = test: PI3K activity assay, cell-based ELISA of AKT (Ser 473) phosphorylation; settings: Homo sapiens, Ovarian cell line A2780, 20% FCS stimulation
Experimental: The assay was designed as in the reference, Biochemical Journal, 2000, 350, 717-722, the disclosure of which is incorporated by reference for the teaching of the assay.
Seed cells (Ovarian cell line A2780, ATCC) were plated in a 96 well microtitre plate at a density of 50,000 cells/cm^2 in appropriate complete cell culture medium. The cells were allowed to adhere for 18-24 hours. The cells were allowed to starve for 24 hours. The cells were pretreated (in triplicates) with the compounds of Example 1-40 (stock solution was prepared in DMSO and subsequent dilutions were made in kinase buffer) at a concentration of 10 μM for one hour. Then the cells were stimulated with 20% FCS for 30 minutes. A typical assay would consist of a set of unstimulated cells, a set of stimulated cells and a set of cells treated with compounds of Example 1-40 and a set of cells treated with the stimulator. The medium was discarded. The cells were fixed with 100 μL of 3.7% formaldehyde for 15 minutes. The formaldehyde was discarded by inverting the plate and tapping it on a thick tissue paper layer to remove traces. The cells were washed and permeabilized with 200 μL PBS+Triton-X 100 solution (hereafter referred to as PBS-Triton, containing 0.1% triton-X 100 in 1×PBS) three times, incubating the cells each time for 5 minutes. 100 μL blocking solution (10% FCS in PBS-Triton) was added and incubated for 1 hour at 25° C. The blocking solution was discarded and cells were incubated with the primary antibody in PBS-Triton at a dilution of 1:500 for 1 hour at RT (25° C.). [The primary antibody is Phospho-AKT (Ser 473); Cell Signaling; USA, Cat. No. 9271]. The primary antibody solution was discarded and the cells were washed 3 times with PBS-Triton solution and incubated with the HRP-conjugated secondary antibody in PBS-Triton at a dilution of 1:500 for 1 hour at RT (25° C.). The cells were washed 3 times with PBS-Triton followed by two washes with PBS (to remove traces of triton-X 100). The OPD (o-phenylene diamine dihydrochloride) substrate was prepared for detection of the signal by dissolving one tablet set (two tablets) of SigmaFast OPD (Sigma, USA, Cat No. P9187) in 20 mL distilled water. It should be kept protected from light. 100 μL OPD solutions was added to the wells and the plate was incubated in the dark for 3-5 minutes (depending upon the development of the color). The reaction was stopped by adding 50 μL 2 NH2SO4. The absorbance was measured at 490 nm. The values were expressed in the treated samples, in terms of percentage or fold decrease in AKT phosphorylation with respect to the induced sample. PI-103 (Calbiochem, USA) was used as a standard.

TNF-α = test: Human monocyte assay, LPS-stimulated TNF-α (ELISA); type: cell-based; settings: human monocytes, 1 μg/ml LPS, 5 hours, read-out: TNFα (IC50)
Experimental: as §4, §5

U 87 MG = test: Cytotoxicity, propidium iodide assay, U 87 MG; type: cell-based; settings: Homo sapiens, Glioblastoma, 48 hours treatment, read-out: IC50, C7b (U 87 MG)
Experimental: as §1, §2, §3

A549 = test: Cytotoxicity, propidium iodide assay, A549; type: cell-based; settings: Homo sapiens; Lung, A549, 48 hours treatment; read-out: IC50, C1a (A549)
Experimental: as §1, §2, §3

HCT116 = test: Cytotoxicity, propidium iodide assay, HCT116; type: cell-based; settings: Homo sapiens, HCT-116; Colon, HCT116, 48 hours treatment; read-out: IC50, C4a (HCT116)
Experimental: as §1, §2, §3

BxPC3 = test: Cytotoxicity, propidium iodide assay, BxPC3; type: cell-based; settings: Homo sapiens, BXPC-3; Pancreatic, BxPC3, 48 hours treatment; read-out: IC50, C5c (BxPC3)
Experimental: as §1, §2, §3

AsPC 1 = test: Cytotoxicity, propidium iodide assay, AsPC 1; type: cell-based; settings: Homo sapiens, ASPC1; Pancreatic, AsPC 1, 48 hours treatment; read-out: IC50, C5b (AsPC 1)
Experimental: as §1, §2, §3

Structure (SMILES)	IC50 (U 373) [nM]	IC50 (IL-6) [nM]	IC50 (PC3) [nM]	IC50 (A2780) [nM]	IC50 (H460) [nM]	inhibition at 0.1 µM (PI3Kα kinase) [%]	IC50 (OVCAR 3) [nM]	inhibition at 10 µM (PI3K α) [%]	IC50 (TNF-α) [nM]	IC50 (U 87 MG) [nM]	IC50 (A549) [nM]	IC50 (HCT116) [nM]	IC50 (BxPC3) [nM]	IC50 (AsPC 1) [nM]
CC(C)(C#N)c1ccc(-n2c(=O)n(S(=O)(=O)c3ccccc3C#N)c3cnc4ccc(Br)cc4c32)cc1 [Example 2, 2-(8-Bromo-1-(4-(2-cyanopropan-2-yl)phenyl)-2-oxo-1H-imidazo[4,5-c]quinolin-3 (2H)-ylsulfonyl)benzonitrile]	> 3000	1000 to 10000	≤ 1000	≤ 1000	≤ 1000	10 to 50	1000 to 3000	10 to 50	≤ 1000					
Cc1cc(C)cc(S(=O)(=O)n2c(=O)n(-c3ccc(C(C)(C)C#N)cc3)c3c4cc(Br)ccc4ncc32)c1 [Example 6, 2-(4-(8-Bromo-3-(3,5-dimethylphenylsulfonyl)-2-oxo-2,3-dihydro-1H-imidazo[4,5-c]quinolin-1-yl)phenyl)-2-methylpropanenitrile]	> 3000	> 30000	1000 to 3000		> 3000	> 50	> 3000	10 to 50		> 3000	> 3000	> 3000		
CC(C)(C#N)c1ccc(-n2c(=O)n(S(=O)(=O)c3ccc(F)cc3F)c3cnc4ccc(Br)cc4c32)cc1 [Example 17, 2-(4-(8-Bromo-3-(2,4-difluorophenylsulfonyl)-2-oxo-2,3-dihydro-1H-imidazo[4,5-c]quinolin-1-yl)phenyl)-2-methylpropanenitrile]		1000 to 10000	1000 to 3000	≤ 1000	1000 to 3000	10 to 50		> 50			1000 to 3000	1000 to 3000	1000 to 3000	1000 to 3000
CC(C)(C#N)c1ccc(-n2c(=O)n(S(C)(=O)=O)c3cnc4ccc(Br)cc4c32)cc1 [Example 18, 2-(4-(8-Bromo-3-(methylsulfonyl)-2-oxo-2,3-dihydro-1H-imidazo[4,5-c]quinolin-1-yl)phenyl)-2-methylpropanenitrile]		1000 to 10000	1000 to 3000	≤ 1000	≤ 1000	10 to 50					1000 to 3000	1000 to 3000	1000 to 3000	1000 to 3000
Cc1cccc(S(=O)(=O)n2c(=O)n(-c3ccc(C(C)(C)C#N)cc3)c3c4cc(Cl)ccc4ncc32)c1 [Example 19, 2-(4-(8-Chloro-2-oxo-3-(m-tolylsulfonyl)-2,3-dihydro-1H-imidazo[4,5-c]quinolin-1-yl)phenyl)-2-methylpropanenitrile]			1000 to 3000		1000 to 3000		> 3000				≤ 1000	> 3000	> 3000	
CC(C)(C#N)c1ccc(-n2c(=O)n(C(=O)Nc3ccccc3Br)c3cnc4ccc(Br)cc4c32)cc1 [Example 33, 8-Bromo-N-(2-bromophenyl)-1-(4-(2-cyanopropan-2-yl)phenyl)-2-oxo-1H-imidazo[4,5-c]quinoline-3(2H)-carboxamide]	> 3000	> 30000	> 3000		1000 to 3000	> 50	> 3000		≤ 1000	> 3000	1000 to 3000	> 3000		

— patent publication US8637670B2, “Imidazo [4,5-C]quinoline derivatives and their use in the treatment of tumors and/or inflammation” (Piramal Enterprises Limited, priority 2009, dated 2014)
